Experimental data reported in PMC4620497 (Scientific Reports, 2015).

Key:
PAK3 = target: T1, PAK3 (Homo sapiens, UniProt O75914); test: KINOMEscan panel screen; assay type: binding; settings: read-out: Percent Control(%)
T1 construct: purchased DiscoveRx KINOMEscan (Ambit Biosciences)

AKT3 = target: T2, AKT3 (Homo sapiens, UniProt Q9Y243); test: KINOMEscan panel screen; assay type: binding; settings: read-out: Percent Control(%)
T2 construct: purchased DiscoveRx KINOMEscan (Ambit Biosciences)

MARK3 = target: T3, MARK3 (Homo sapiens, UniProt P27448); test: KINOMEscan panel screen; assay type: binding; settings: read-out: Percent Control(%)
T3 construct: purchased DiscoveRx KINOMEscan (Ambit Biosciences)
T3 sequence (P27448 whole entry): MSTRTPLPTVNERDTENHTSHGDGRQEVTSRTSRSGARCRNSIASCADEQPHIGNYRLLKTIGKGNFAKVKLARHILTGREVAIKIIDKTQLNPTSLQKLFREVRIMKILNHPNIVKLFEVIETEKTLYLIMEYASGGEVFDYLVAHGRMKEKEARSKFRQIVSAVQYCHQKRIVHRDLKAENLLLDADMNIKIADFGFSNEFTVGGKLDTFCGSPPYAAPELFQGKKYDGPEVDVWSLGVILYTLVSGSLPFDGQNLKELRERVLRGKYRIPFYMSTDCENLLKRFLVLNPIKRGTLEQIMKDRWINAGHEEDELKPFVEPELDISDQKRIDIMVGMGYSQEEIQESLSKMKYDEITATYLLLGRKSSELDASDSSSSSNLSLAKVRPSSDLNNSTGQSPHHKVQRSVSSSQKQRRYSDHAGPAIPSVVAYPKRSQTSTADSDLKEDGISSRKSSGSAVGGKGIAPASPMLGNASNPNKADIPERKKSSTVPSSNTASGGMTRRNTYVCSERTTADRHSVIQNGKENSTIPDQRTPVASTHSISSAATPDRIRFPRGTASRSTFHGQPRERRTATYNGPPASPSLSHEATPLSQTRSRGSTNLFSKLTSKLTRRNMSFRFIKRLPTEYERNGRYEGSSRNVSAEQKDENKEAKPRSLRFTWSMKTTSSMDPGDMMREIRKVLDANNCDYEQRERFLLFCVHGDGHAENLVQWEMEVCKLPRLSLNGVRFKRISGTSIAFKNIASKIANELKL

EPHA6 = target: T4, EPHA6 (Homo sapiens, UniProt Q9UF33); test: KINOMEscan panel screen; assay type: binding; settings: read-out: Percent Control(%)
T4 construct: purchased DiscoveRx KINOMEscan (Ambit Biosciences)

GSK3B = target: T5, GSK3B (Homo sapiens, UniProt P49841); test: KINOMEscan panel screen; assay type: binding; settings: read-out: Percent Control(%)
T5 construct: purchased DiscoveRx KINOMEscan (Ambit Biosciences)

PKN2 = target: T6, PKN2 (Homo sapiens, UniProt Q16513); test: KINOMEscan panel screen; assay type: binding; settings: read-out: Percent Control(%)
T6 construct: purchased DiscoveRx KINOMEscan (Ambit Biosciences)

DMPK = target: T7, DMPK (Homo sapiens, UniProt Q09013); test: KINOMEscan kinase binding assay (Kd); settings: Table S1
T7 construct: purchased DiscoveRx KINOMEscan (Ambit Biosciences)
T7 sequence (Q09013 1-629): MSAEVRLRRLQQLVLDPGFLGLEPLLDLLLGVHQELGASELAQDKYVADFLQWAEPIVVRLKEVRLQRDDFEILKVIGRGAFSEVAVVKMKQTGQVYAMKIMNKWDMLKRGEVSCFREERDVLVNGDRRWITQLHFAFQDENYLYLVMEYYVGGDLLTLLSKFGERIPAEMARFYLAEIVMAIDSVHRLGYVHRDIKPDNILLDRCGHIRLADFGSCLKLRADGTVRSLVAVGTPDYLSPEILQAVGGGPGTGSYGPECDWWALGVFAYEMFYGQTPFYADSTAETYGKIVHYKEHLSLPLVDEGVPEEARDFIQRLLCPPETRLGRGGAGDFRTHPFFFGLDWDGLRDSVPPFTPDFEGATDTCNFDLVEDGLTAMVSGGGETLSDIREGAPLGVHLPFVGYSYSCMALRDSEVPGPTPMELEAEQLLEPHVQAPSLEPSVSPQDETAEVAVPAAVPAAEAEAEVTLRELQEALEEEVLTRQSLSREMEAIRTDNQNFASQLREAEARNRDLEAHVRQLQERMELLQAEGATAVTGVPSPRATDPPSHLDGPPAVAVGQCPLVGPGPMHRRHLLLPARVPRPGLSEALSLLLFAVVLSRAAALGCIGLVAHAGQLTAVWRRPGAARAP
Description: (§1) In vitro KINOMEscan kinase binding assays (Ambit Biosciences) were employed to determine the binding affinity (Kd) of compounds[41][42].
(§2) compound 1. The y have very similar spectrum of activity in enz ymatic and cellular
(§3) levels. Both of them have the ability to inhibit Wnt/β -catenin si gnalin g. However, in […]

PAK1 = PAK1 (Homo sapiens, UniProt Q13153); test: KINOMEscan kinase binding assay (Kd); settings: Table S1
Chain of PAK1 (Q13153 whole entry): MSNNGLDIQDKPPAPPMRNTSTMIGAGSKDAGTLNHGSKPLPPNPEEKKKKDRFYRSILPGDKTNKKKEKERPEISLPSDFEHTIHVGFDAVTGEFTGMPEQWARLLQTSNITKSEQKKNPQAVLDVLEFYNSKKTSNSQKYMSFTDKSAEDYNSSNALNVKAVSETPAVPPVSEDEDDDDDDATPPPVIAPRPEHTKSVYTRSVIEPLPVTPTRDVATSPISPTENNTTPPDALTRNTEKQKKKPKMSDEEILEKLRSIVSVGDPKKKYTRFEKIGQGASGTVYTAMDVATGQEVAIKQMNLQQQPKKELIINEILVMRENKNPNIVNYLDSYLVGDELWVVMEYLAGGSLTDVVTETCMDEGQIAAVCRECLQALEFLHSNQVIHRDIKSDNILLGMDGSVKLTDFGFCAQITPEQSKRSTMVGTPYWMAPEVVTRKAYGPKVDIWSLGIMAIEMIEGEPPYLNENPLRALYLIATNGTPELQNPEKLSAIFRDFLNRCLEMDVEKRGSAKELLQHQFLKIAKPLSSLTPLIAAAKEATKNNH
Description: as §1, §2, §3

CAMK4 = target: T8, CAMK4 (Homo sapiens, UniProt Q16566); test: KINOMEscan kinase binding assay (Kd); settings: Table S1
T8 construct: purchased DiscoveRx KINOMEscan (Ambit Biosciences)
T8 sequence (Q16566 1-473): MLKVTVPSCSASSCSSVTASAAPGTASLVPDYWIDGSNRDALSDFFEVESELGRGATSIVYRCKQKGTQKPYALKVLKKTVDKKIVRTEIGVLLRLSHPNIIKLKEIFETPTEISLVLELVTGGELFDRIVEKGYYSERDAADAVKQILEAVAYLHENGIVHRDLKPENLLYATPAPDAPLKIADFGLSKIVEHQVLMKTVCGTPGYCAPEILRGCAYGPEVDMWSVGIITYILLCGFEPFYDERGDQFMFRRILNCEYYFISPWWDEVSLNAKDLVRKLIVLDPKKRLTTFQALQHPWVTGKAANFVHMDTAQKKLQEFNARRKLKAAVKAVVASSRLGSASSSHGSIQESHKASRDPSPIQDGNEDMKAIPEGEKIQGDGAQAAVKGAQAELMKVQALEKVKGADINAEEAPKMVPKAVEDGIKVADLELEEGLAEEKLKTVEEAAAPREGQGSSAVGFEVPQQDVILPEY
Description: as §1, §2, §3

[1] = tested on: β-catenin target genes in primary AML cells; test: Real-time qPCR of β-catenin target genes in primary AML cells; assay type: cell-based, human
Description: To confirm the Wnt/β-catenin inhibition effect of SKLB-677, we examined the protein levels of total β-catenin and non-phospho-β-catenin (active β-catenin); the non-phospho β-catenin other than the phosphorylated β-catenin enters the cell nucleus and plays the gene regulation function. […] We further examined the expressions of β-catenin target genes MYC, CCND1, and NKD1 by real-time qPCR. […] Finally, the real-time qPCR assays were used again to inspect the influence of SKLB-677 on Wnt/β-catenin signaling in the primary AML cells.
Total RNA of cell samples and tumor samples was extracted using RNAsimple total RNA kit (TIANGEN) according to the manufacturer’s instructions. cDNA was generated using the iScript^TMcDNA Synthesis Kit (Bio-Rad), and the RT-PCR reactions were performed using SsoAdvanced SYBR Green Supermix (Bio-Rad). The reaction consisted of 40 cycles of denaturation at 95 °C for 5 s and annealing/extension for 30s at 60 °C. The primer sequences are listed in Supplementary Table S7.

CDC2L2 = target: T9, CDC2L2 (Homo sapiens, UniProt Q9UQ88); test: KINOMEscan panel screen; assay type: binding; settings: read-out: Percent Control(%)
T9 construct: purchased DiscoveRx KINOMEscan (Ambit Biosciences)

DMPK2 = target: T10, DMPK2 (Homo sapiens, UniProt Q6DT37); test: KINOMEscan panel screen; assay type: binding; settings: read-out: Percent Control(%)
T10 construct: purchased DiscoveRx KINOMEscan (Ambit Biosciences)

JNK1 = target: T11, JNK1 (Homo sapiens, UniProt P45983); test: KINOMEscan panel screen; assay type: binding; settings: read-out: Percent Control(%)
T11 construct: purchased DiscoveRx KINOMEscan (Ambit Biosciences)

PIP5K2C = target: T12, PIP5K2C (Homo sapiens, UniProt Q8TBX8); test: KINOMEscan panel screen; assay type: binding; settings: read-out: Percent Control(%)
T12 construct: purchased DiscoveRx KINOMEscan (Ambit Biosciences)

MST3 = target: T13, MST3 (Homo sapiens, UniProt Q9Y6E0); test: KINOMEscan panel screen; assay type: binding; settings: read-out: Percent Control(%)
T13 construct: purchased DiscoveRx KINOMEscan (Ambit Biosciences)
T13 sequence (Q9Y6E0 whole entry): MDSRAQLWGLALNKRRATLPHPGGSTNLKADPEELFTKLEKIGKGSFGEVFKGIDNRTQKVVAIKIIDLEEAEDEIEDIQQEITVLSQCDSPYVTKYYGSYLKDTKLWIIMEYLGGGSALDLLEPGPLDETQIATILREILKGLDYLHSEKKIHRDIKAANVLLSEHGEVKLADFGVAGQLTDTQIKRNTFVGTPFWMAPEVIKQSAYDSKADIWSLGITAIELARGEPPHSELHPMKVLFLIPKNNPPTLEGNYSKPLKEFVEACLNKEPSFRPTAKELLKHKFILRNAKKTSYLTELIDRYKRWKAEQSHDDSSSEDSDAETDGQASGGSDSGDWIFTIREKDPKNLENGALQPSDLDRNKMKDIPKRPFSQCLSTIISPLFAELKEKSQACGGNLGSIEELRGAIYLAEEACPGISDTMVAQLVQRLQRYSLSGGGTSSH

PLK1 = target: T14, PLK1 (Homo sapiens, UniProt P53350); test: KINOMEscan panel screen; assay type: binding; settings: read-out: Percent Control(%)
T14 construct: purchased DiscoveRx KINOMEscan (Ambit Biosciences)
T14 sequence (P53350 whole entry): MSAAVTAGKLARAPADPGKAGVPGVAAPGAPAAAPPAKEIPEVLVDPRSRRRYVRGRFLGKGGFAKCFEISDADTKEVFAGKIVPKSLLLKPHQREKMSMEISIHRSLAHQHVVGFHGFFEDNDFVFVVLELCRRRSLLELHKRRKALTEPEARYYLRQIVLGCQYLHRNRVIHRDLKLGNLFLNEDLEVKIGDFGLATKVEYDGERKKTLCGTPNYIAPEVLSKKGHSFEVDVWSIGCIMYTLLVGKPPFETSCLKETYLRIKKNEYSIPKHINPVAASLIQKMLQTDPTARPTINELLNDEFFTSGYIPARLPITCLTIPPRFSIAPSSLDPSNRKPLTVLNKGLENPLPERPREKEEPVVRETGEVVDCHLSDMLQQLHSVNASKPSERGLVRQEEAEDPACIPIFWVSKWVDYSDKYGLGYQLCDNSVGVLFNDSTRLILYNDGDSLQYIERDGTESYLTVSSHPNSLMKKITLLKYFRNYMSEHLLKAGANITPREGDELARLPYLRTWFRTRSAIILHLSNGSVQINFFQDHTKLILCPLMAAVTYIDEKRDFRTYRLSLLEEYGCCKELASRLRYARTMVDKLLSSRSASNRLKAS

PIK3CA(I800L) = target: T15, PIK3CA(I800L) (Homo sapiens, UniProt P42336, I800L); test: KINOMEscan panel screen; assay type: binding; settings: read-out: Percent Control(%)
T15 construct: purchased DiscoveRx KINOMEscan (Ambit Biosciences)

AKT2 = target: T16, AKT2 (Homo sapiens, UniProt P31751); test: KINOMEscan panel screen; assay type: binding; settings: read-out: Percent Control(%)
T16 construct: purchased DiscoveRx KINOMEscan (Ambit Biosciences)

SRPK1 = target: T17, SRPK1 (Homo sapiens, UniProt Q96SB4); test: KINOMEscan panel screen; assay type: binding; settings: read-out: Percent Control(%)
T17 construct: purchased DiscoveRx KINOMEscan (Ambit Biosciences)

RET(M918T) = target: T18, RET(M918T) (Homo sapiens, UniProt P07949, M918T); test: KINOMEscan panel screen; assay type: binding; settings: read-out: Percent Control(%)
T18 construct: purchased DiscoveRx KINOMEscan (Ambit Biosciences)
T18 sequence (P07949 29-1114 M918T): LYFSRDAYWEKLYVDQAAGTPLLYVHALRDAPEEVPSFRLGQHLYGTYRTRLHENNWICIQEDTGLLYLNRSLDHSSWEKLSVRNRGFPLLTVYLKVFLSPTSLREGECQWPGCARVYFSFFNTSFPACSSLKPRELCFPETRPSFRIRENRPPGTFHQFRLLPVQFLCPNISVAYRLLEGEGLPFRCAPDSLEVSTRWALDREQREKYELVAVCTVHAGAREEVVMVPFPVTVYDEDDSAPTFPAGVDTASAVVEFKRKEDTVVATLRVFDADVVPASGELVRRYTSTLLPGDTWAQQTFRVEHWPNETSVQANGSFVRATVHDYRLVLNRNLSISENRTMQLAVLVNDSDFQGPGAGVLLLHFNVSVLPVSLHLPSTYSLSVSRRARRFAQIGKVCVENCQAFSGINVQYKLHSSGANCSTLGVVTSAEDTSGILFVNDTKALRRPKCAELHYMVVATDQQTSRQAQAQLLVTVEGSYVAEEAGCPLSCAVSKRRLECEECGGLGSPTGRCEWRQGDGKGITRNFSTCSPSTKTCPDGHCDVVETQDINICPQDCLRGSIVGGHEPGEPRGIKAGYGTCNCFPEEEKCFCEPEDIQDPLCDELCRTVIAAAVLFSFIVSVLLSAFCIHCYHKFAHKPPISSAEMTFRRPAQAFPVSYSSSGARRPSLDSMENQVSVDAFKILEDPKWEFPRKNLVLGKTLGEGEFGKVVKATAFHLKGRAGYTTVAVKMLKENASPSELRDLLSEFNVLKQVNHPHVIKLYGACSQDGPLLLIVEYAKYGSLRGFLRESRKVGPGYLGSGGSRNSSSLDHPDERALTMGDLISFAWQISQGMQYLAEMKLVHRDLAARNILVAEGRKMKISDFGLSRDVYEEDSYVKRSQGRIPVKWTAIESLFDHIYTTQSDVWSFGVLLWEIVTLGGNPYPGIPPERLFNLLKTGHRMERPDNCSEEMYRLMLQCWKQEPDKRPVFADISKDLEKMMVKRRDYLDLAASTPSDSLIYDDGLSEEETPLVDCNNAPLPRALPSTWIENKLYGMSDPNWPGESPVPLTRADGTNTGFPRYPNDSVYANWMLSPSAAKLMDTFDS

MYLK2 = target: T19, MYLK2 (Homo sapiens, UniProt Q9H1R3); test: KINOMEscan panel screen; assay type: binding; settings: read-out: Percent Control(%)
T19 construct: purchased DiscoveRx KINOMEscan (Ambit Biosciences)
T19 sequence (Q9H1R3 whole entry): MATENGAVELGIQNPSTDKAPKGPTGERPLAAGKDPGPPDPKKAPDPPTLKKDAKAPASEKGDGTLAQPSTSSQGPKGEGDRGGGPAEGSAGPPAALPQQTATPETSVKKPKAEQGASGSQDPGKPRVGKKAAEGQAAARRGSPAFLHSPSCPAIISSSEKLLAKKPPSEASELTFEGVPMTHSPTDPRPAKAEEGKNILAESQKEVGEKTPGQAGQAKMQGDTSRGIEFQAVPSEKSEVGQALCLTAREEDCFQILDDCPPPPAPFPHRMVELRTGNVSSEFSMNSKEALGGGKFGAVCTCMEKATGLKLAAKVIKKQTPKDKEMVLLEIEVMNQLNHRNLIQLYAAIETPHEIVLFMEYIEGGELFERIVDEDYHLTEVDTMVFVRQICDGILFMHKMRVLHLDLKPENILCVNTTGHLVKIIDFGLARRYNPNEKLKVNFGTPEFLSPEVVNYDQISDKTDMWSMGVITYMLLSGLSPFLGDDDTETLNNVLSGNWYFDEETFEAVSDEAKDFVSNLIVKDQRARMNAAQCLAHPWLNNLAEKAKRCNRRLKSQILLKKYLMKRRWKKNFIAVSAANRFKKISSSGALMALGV

BRK = target: T20, BRK (Homo sapiens, UniProt Q13882); test: KINOMEscan panel screen; assay type: binding; settings: read-out: Percent Control(%)
T20 construct: purchased DiscoveRx KINOMEscan (Ambit Biosciences)
T20 sequence (Q13882 whole entry): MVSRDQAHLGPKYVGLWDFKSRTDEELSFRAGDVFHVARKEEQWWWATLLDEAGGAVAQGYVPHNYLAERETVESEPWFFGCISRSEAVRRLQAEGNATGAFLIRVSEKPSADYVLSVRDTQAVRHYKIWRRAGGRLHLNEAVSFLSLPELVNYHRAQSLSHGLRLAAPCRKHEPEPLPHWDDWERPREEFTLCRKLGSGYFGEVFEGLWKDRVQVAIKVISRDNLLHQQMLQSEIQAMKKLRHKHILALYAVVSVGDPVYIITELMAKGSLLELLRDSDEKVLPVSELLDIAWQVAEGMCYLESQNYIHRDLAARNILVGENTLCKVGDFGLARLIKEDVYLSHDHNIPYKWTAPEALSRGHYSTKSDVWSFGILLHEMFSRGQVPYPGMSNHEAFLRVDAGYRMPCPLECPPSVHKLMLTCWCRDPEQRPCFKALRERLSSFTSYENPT

T2 sequence (Q9Y243 whole entry): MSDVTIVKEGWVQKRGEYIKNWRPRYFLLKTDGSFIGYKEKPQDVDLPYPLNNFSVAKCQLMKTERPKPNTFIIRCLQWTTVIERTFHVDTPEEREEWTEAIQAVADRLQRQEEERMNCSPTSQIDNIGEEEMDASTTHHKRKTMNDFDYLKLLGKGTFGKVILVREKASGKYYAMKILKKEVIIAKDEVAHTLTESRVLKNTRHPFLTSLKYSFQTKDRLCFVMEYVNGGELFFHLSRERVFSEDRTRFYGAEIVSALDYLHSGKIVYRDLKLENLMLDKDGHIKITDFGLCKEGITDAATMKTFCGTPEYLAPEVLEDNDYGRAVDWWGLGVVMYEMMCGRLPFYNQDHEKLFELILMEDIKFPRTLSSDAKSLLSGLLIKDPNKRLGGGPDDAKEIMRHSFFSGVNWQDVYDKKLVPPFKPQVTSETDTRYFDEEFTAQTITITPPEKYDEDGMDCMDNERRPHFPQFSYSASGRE

SMILES: CC(C)(C)c1cc(NC(=O)Nc2ccc(Oc3ncnc4[nH]ncc34)c(F)c2)no1 [SKLB-677, 1-(4-(1H-pyrazolo[3,4-d]pyrimidin-4-yloxy)-3-fluorophenyl)-3-(5-tert-butylisoxazol-3-yl)urea]
- remaining binding at 10 µM (PAK3): 6.4%
- remaining binding at 10 µM (AKT3): 100%
- remaining binding at 10 µM (MARK3): 68%
- remaining binding at 10 µM (EPHA6): 0%
- remaining binding at 10 µM (GSK3B): 96%
- remaining binding at 10 µM (PKN2): 100%
- Kd (DMPK): > 10 µM
- Kd (PAK1): > 10 µM
- Kd (CAMK4): > 10 µM
- expression of β-catenin target genes [1]: considerably decrease
- remaining binding at 10 µM (CDC2L2): 53%
- remaining binding at 10 µM (DMPK2): 50%
- remaining binding at 10 µM (JNK1): 52%
- remaining binding at 10 µM (PIP5K2C): 100%
- remaining binding at 10 µM (MST3): 46%
- remaining binding at 10 µM (PLK1): 35%
- remaining binding at 10 µM (PIK3CA(I800L)): 87%
- remaining binding at 10 µM (AKT2): 100%
- remaining binding at 10 µM (SRPK1): 96%
- remaining binding at 10 µM (RET(M918T)): 0%
- remaining binding at 10 µM (MYLK2): 72%
- remaining binding at 10 µM (BRK): 23%
